Data as given in patent US11234437B2 (priority 2017, dated 2022).

What was measured:
[1] = test system: Magnaporthe grisea (Pyricularia oryzae); assay: microbe, parasite or virus in culture; format: cell-based; settings: read-out: control of Magnaporthe grisea
[2] = test system: Monographella nivalis (Microdochium nivale); assay: Monographella nivalis (Microdochium nivale) / liquid culture (foot rot cereals); format: cell-based; settings: compared to untreated control
Description: Monographella nivalis (Microdochium nivale)/Liquid Culture (Foot Rot Cereals)
(§1) Conidia of the fungus from cryogenic storage are directly mixed into nutrient broth (PDB potato dextrose broth). After placing a (DMSO) solution of test compound into a microtiter plate (96-well format), the nutrient broth containing the fungal spores is added. The test plates are incubated at 24° C. and the inhibition of growth is determined photometrically 4-5 days after application.

[3] = test system: Gibberella zeae (Fusarium graminearum); assay: whole plant or invertebrate; format: in vivo; settings: in Triticum aestivum, read-out: control of Gibberella zeae
Gaeumannomyces graminis = Gaeumannomyces graminis / liquid culture (take-all of cereals); format: cell-based; settings: compared to untreated control
Description: as §1, with “Mycelial fragments of” for “Conidia of”, “storage were” for “storage are”

| Structure (SMILES) | inhibition of growth at 20 ppm [1] [%] | inhibition of growth at 20 ppm [2] [%] | pest or weed control at 200 ppm [3] [%] | inhibition of growth at 20 ppm (Gaeumannomyces graminis) [%] | melting point [°C] |
| --- | --- | --- | --- | --- | --- |
| CC(C)(F)C[C@@](C)(Cc1ccccc1)NC(=O)c1cnc2c(F)cccc2c1 [Compound F-15, N-[(1R)-1-benzyl-3-fluoro-1,3-dimethyl-butyl]-8-fluoro-quinoline-3-carboxamide] | ≥ 80 | ≥ 80 | ≥ 80 |  |  |
| CC1(CC(C)(Cc2ccccc2)NC(=O)c2cnc3c(F)cccc3c2)CC1 (stereo not drawn) [X.003, N-[1-benzyl-1-methyl-2-(1-methylcyclopropyl)ethyl]-8-fluoro-quinoline-3-carboxamide] | ≥ 80 |  | ≥ 80 | ≥ 80 | 126 to 129 |
| CC(C)(F)C[C@](C)(Cc1ccccc1)NC(=O)c1cnc2c(F)cccc2c1 [Compound F-16, N-[(1S)-1-benzyl-3-fluoro-1,3-dimethyl-butyl]-8-fluoro-quinoline-3-carboxamide] | ≥ 80 | ≥ 80 | ≥ 80 |  |  |
| Cc1cccc2cc(C(=O)NC(C)(Cc3ccccc3)CC(F)(F)F)cnc12 (stereo not drawn) [X.004, N-(1-benzyl-3,3,3-trifluoro-1-methyl-propyl)-8-methyl-quinoline-3-carboxamide] | ≥ 80 | ≥ 80 | ≥ 80 |  | 120 to 123 |
| Cc1cccc2cc(C(=O)N[C@](C)(Cc3ccccc3)CC(F)(F)F)cnc12 [Compound F-18, N-[(1R)-1-benzyl-3,3,3-trifluoro-1-methyl-propyl]-8-methyl-quinoline-3-carboxamide] | ≥ 80 |  |  |  |  |
| CC(C)(C)C[C@](C)(Cc1ccccc1)NC(=O)c1cnc2c(F)cccc2c1 [Compound F-10, N-[(1R)-1-benzyl-1,3,3-trimethyl-butyl]-8-fluoro-quinoline-3-carboxamide] |  |  | ≥ 80 | ≥ 80 |  |
| CC(C)CC(C)(Cc1ccccc1)NC(=O)c1cnc2c(Cl)cccc2c1 (stereo not drawn) [X.018, N-(1-benzyl-1,3-dimethyl-butyl)-8-chloro-quinoline-3-carboxamide] | ≥ 80 | ≥ 80 |  | ≥ 80 | 147 to 148 |
| CC(C)CC(C)(Cc1ccccc1)NC(=O)c1cnc2c(F)cccc2c1 (stereo not drawn) [X.002, N-(1-benzyl-1,3-dimethyl-butyl)-8-fluoro-quinoline-3-carboxamide] | ≥ 80 | ≥ 80 |  | ≥ 80 | 110 to 112 |
| CC(C)(F)CC(C)(Cc1ccccc1)NC(=O)c1cnc2c(F)cccc2c1 (stereo not drawn) [X.015, N-(1-benzyl-3-fluoro-1,3-dimethyl-butyl)-8-fluoro-quinoline-3-carboxamide] | ≥ 80 | ≥ 80 | ≥ 80 |  |  |
| C=C(C)C[C@](C)(Cc1ccccc1)NC(=O)c1cnc2c(F)c(F)ccc2c1 [Compound F-11, N-[(1R)-1-benzyl-1,3-dimethyl-but-3-enyl]-7,8-difluoro-quinoline-3-carboxamide] | ≥ 80 |  | ≥ 80 |  |  |
| CC(C)(C)CC(C)(Cc1ccccc1)NC(=O)c1cnc2c(F)cccc2c1 (stereo not drawn) [X.016, N-(1-benzyl-1,3,3-trimethyl-butyl)-8-fluoro-quinoline-3-carboxamide] | ≥ 80 | ≥ 80 | ≥ 80 |  | 48 to 50 |
| CC(C)(C)C[C@@](C)(Cc1ccccc1)NC(=O)c1cnc2c(F)cccc2c1 [Compound F-9, N-[(1S)-1-benzyl-1,3,3-trimethyl-butyl]-8-fluoro-quinoline-3-carboxamide] |  | ≥ 80 | ≥ 80 | ≥ 80 |  |
| C=C(C)CC(C)(Cc1ccccc1)NC(=O)c1cnc2c(F)c(F)ccc2c1 (stereo not drawn) [X.010, N-(1-benzyl-1,3-dimethyl-but-3-enyl)-7,8-difluoro-quinoline-3-carboxamide] | ≥ 80 | ≥ 80 | ≥ 80 |  | 94 to 96 |
| C=C(C)C[C@@](C)(Cc1ccccc1)NC(=O)c1cnc2c(F)c(F)ccc2c1 [Compound F-12, N-[(1S)-1-benzyl-1,3-dimethyl-but-3-enyl]-7,8-difluoro-quinoline-3-carboxamide] | ≥ 80 | ≥ 80 |  |  |  |
| C=C(C)CC(C)(Cc1ccccc1)NC(=O)c1cnc2c(F)cccc2c1 (stereo not drawn) [X.009, N-(1-benzyl-1,3-dimethyl-but-3-enyl)-8-fluoro-quinoline-3-carboxamide] | ≥ 80 | ≥ 80 | ≥ 80 | ≥ 80 |  |
| CC(C)C[C@](C)(Cc1ccccc1)NC(=O)c1cnc2ccccc2c1 [Compound F-4, N-[(1R)-1-benzyl-1,3-dimethyl-butyl]quinoline-3-carboxamide] | ≥ 80 |  |  | ≥ 80 |  |
| C[C@](Cc1ccccc1)(CC(F)(F)F)NC(=O)c1cnc2c(F)cccc2c1 [Compound F-7, N-[(1S)-1-benzyl-3,3,3-trifluoro-1-methyl-propyl]-8-fluoro-quinoline-3-carboxamide] | ≥ 80 |  | ≥ 80 |  |  |
| C=C(C)C[C@](C)(Cc1ccccc1)NC(=O)c1cnc2c(F)cccc2c1 [Compound F-5, N-[(1R)-1-benzyl-1,3-dimethyl-but-3-enyl]-8-fluoro-quinoline-3-carboxamide] | ≥ 80 | ≥ 80 | ≥ 80 |  |  |
| CC(C)C[C@](C)(Cc1ccccc1)NC(=O)c1cnc2c(F)cccc2c1 [Compound F-2, N-[(1R)-1-benzyl-1,3-dimethyl-butyl]-8-fluoro-quinoline-3-carboxamide] | ≥ 80 | ≥ 80 |  | ≥ 80 |  |
| CC(Cc1ccccc1)(CC(F)(F)F)NC(=O)c1cnc2c(F)cccc2c1 (stereo not drawn) [X.006, N-(1-benzyl-3,3,3-trifluoro-1-methyl-propyl)-8-fluoro-quinoline-3-carboxamide] | ≥ 80 |  | ≥ 80 | ≥ 80 | 158 to 160 |
| C=C(C)C[C@@](C)(Cc1ccccc1)NC(=O)c1cnc2c(F)cccc2c1 [Compound F-6, N-[(1S)-1-benzyl-1,3-dimethyl-but-3-enyl]-8-fluoro-quinoline-3-carboxamide] |  | ≥ 80 | ≥ 80 | ≥ 80 |  |
| C[C@@](Cc1ccccc1)(CC(F)(F)F)NC(=O)c1cnc2c(Cl)cccc2c1 [Compound F-20, N-[(1R)-1-benzyl-3,3,3-trifluoro-1-methyl-propyl]-8-chloro-quinoline-3-carboxamide] | ≥ 80 |  |  |  |  |
| CC(C)C[C@](C)(Cc1ccccc1)NC(=O)c1cnc2c(F)c(F)ccc2c1 [Compound F-14, N-[(1R)-1-benzyl-1,3-dimethyl-butyl]-7,8-difluoro-quinoline-3-carboxamide] | ≥ 80 |  |  |  |  |
| CC(F)(F)C[C@@](C)(Cc1ccccc1)NC(=O)c1cnc2c(F)cccc2c1 [Compound F-31, N-[(1R)-1-benzyl-3,3-difluoro-1-methyl-butyl]-8-fluoro-quinoline-3-carboxamide] | ≥ 80 | ≥ 80 | ≥ 80 |  |  |
| CC(C)C[C@@](C)(Cc1ccccc1)NC(=O)c1cnc2ccccc2c1 [Compound F-3, N-[(1S)-1-benzyl-1,3-dimethyl-butyl]quinoline-3-carboxamide] | ≥ 80 | ≥ 80 |  | ≥ 80 |  |
| CC(Cc1ccccc1)(CC(F)(F)F)NC(=O)c1cnc2c(Cl)cccc2c1 (stereo not drawn) [X.005, N-(1-benzyl-3,3,3-trifluoro-1-methyl-propyl)-8-chloro-quinoline-3-carboxamide] | ≥ 80 | ≥ 80 | ≥ 80 |  | 141 to 144 |
| C[C@@](Cc1ccccc1)(CC(F)(F)F)NC(=O)c1cnc2c(F)cccc2c1 [Compound F-8, N-[(1R)-1-benzyl-3,3,3-trifluoro-1-methyl-propyl]-8-fluoro-quinoline-3-carboxamide] | ≥ 80 |  |  |  |  |
| CC(F)(F)CC(C)(Cc1ccccc1)NC(=O)c1cnc2c(F)cccc2c1 (stereo not drawn) [X.014, N-(1-benzyl-3,3-difluoro-1-methyl-butyl)-8-fluoro-quinoline-3-carboxamide] | ≥ 80 |  | ≥ 80 |  |  |
| C[C@@](Cc1ccccc1)(CC(F)(F)F)NC(=O)c1cnc2c(F)c(F)ccc2c1 [Compound F-22, N-[(1R)-1-benzyl-3,3,3-trifluoro-1-methyl-propyl]-7,8-difluoro-quinoline-3-carboxamide] | ≥ 80 |  | ≥ 80 |  |  |
| CC(C)C[C@@](C)(Cc1ccccc1)NC(=O)c1cnc2c(F)cccc2c1 [Compound F-1, N-[(1S)-1-benzyl-1,3-dimethyl-butyl]-8-fluoro-quinoline-3-carboxamide] | ≥ 80 | ≥ 80 |  | ≥ 80 |  |
